In data set [1] the test system is mixed neural culture of hippocampus cells exposed to kainate. It is filed as cell-based, rat.
Data set [2] relates to permanent focal ischemia (occlusion of the middle cerebral artery). The data set is described as follows: in vivo permanent focal ischemia model in mice (MCAo), lesion volume by TTC colouring.
Data set [3] has as its system organotypical slices of rat hippocampus (CA3 region). Briefly: in vitro complex excitotoxicity model: organotypical rat hippocampus culture exposed to kainate. The note with it: 20 μM, 24 hours.

Molecules are shown by their SMILES.

Turning to `CC[C@@H](CO)Nc1nc(NCc2ccccc2)c2ncn(C(C)C)c2n1` [(S)-roscovitine], the “neurones prevented from death compared with (R)-roscovitine” value in data set [1] is given as “twice as many”. Moreover, the “reduction in the size of the penumbra zone compared with the control” value in data set [2] (ICV, 500 μM, 3 hours after occlusion) amounted to 35.8%. Further, the “volume of the necrotic core” value in data set [2] (ICV, 500 μM, 3 hours after occlusion (control 6.06 mm3)) came to 5.39 mm3; in data set [2] (systemic (PI), 25 mg/kg intraperitoneal x2, 3 hours after occlusion (control 5.03 mm3)) it was 4.88 mm3. Also, the “volume of the penumbra zone” value is on record as 8.14 mm3 in data set [2] (ICV, 500 μM, 3 hours after occlusion (control 12.68 mm3)) and 9.22 mm3 in data set [2] (systemic (PI), 25 mg/kg intraperitoneal x2, 3 hours after occlusion (control 15.31 mm3)). Further, the “total volume of the lesion” value in data set [2] (ICV, 500 μM, 3 hours after occlusion (control 18.74 mm3)) is 13.54 mm3; in data set [2] (systemic (PI), 25 mg/kg intraperitoneal x2, 3 hours after occlusion (control 20.34 mm3)) it was 14.10 mm3. Moreover, the “reduction in the total volume of the lesion compared with the control” value was 27.7% in data set [2] (intracerebroventricular (ICV), 500 μM by osmotic micropump from 48 hours before MCAo, 3 hours after occlusion); 30.7% in data set [2] (systemic (PI), 25 mg/kg, 2 intraperitoneal injections 15 minutes before and 1 hour after MCAo, 3 hours after occlusion). For the same compound, in data set [2] (systemic (PI), 25 mg/kg intraperitoneal x2, 3 hours after occlusion), the “reduction in the size of the penumbra compared with the control” value is listed as 38.9%. Moreover, the “toxic effect on organotypical rat hippocampus cultures” value in data set [3] is on record as “absence of toxic effect”.

As for `CC[C@H](CO)Nc1nc(NCc2ccccc2)c2ncn(C(C)C)c2n1` [(R)-roscovitine], in data set [1], the “amount necessary compared with (S)-roscovitine to prevent the death of the same number of neurones” value is given as “Three times more” and the “neuronal death percentage (RND)” value stood at 62%.

The values above are taken from patent US8318707B2 (priority 2006, dated 2012).
